Data as given in the OligoGym collection.
Where “and” joins values, the source holds several entries; their conditions need not be identical. Equal values may be shown once. HELM strings list units from the 5' end as sugar, base in round brackets, then linkage (d deoxyribose, r ribose, m 2'-O-methyl, p phosphodiester). Strings are as the collection lists them, not checked against the first reports. ss, as = sense and antisense strand; [fl2r] = 2'-fluoro

Settings: siRNA
Further: test system not given here.

Substance	target mRNA knockdown
RNA1{r(A)p.r(G)p.r(U)p.[fl2r](U)p.r(A)p.r(A)p.r(C)p.r(C)p.r(C)p.r(G)p.r(G)p.r(G)p.r(A)p.r(C)p.r(U)p.[fl2r](U)p.r(G)p.r(G)p.r(A)p.r(T)p.r(T)}|RNA2{r(U)p.r(C)p.[fl2r](C)p.r(A)p.r(A)p.r(G)p.r(U)p.r(C)p.r(C)p.r(C)p.r(G)p.r(G)p.r(G)p.r(U)p.[fl2r](U)p.r(A)p.r(A)p.r(C)p.r(U)p.r(T)p.r(T)}$$$RNA1{StrandType:ss}|RNA2{StrandType:as}$	85% and 86%
RNA1{r(A)p.r(G)p.r(U)p.m(U)p.r(A)p.r(A)p.r(C)p.r(C)p.r(C)p.r(G)p.r(G)p.r(G)p.r(A)p.r(C)p.r(U)p.m(U)p.r(G)p.r(G)p.r(A)p.r(T)p.r(T)}|RNA2{r(U)p.r(C)p.m(C)p.r(A)p.r(A)p.r(G)p.r(U)p.r(C)p.r(C)p.r(C)p.r(G)p.r(G)p.r(G)p.r(U)p.m(U)p.r(A)p.r(A)p.r(C)p.r(U)p.r(T)p.r(T)}$$$RNA1{StrandType:ss}|RNA2{StrandType:as}$	90%
RNA1{r(A)p.r(G)p.r(U)p.m(U)p.r(A)p.r(A)p.r(C)p.r(C)p.r(C)p.r(G)p.r(G)p.r(G)p.r(A)p.r(C)p.r(U)p.r(U)p.r(G)p.r(G)p.r(A)p.r(T)p.r(T)}|RNA2{r(U)p.r(C)p.m(C)p.r(A)p.r(A)p.r(G)p.r(U)p.r(C)p.r(C)p.r(C)p.r(G)p.r(G)p.r(G)p.r(U)p.r(U)p.r(A)p.r(A)p.r(C)p.r(U)p.r(T)p.r(T)}$$$RNA1{StrandType:ss}|RNA2{StrandType:as}$	91%
RNA1{r(A)p.r(G)p.r(U)p.r(C)p.r(C)p.r(C)p.m(U)p.r(G)p.r(G)p.r(A)p.r(G)p.r(C)p.r(C)p.r(U)p.m(U)p.r(A)p.r(A)p.r(A)p.r(C)p.r(T)p.r(T)}|RNA2{r(G)p.r(U)p.r(U)p.m(U)p.r(A)p.r(A)p.r(G)p.r(G)p.r(C)p.r(U)p.r(C)p.m(C)p.r(A)p.r(G)p.r(G)p.r(G)p.r(A)p.r(C)p.r(U)p.r(T)p.r(T)}$$$RNA1{StrandType:ss}|RNA2{StrandType:as}$	65%
RNA1{r(A)p.r(G)p.r(U)p.r(C)p.r(C)p.r(C)p.r(U)p.r(G)p.r(G)p.r(A)p.r(G)p.r(C)p.r(C)p.r(U)p.m(U)p.m(A)p.r(A)p.r(A)p.r(C)p.r(T)p.r(T)}|RNA2{r(G)p.r(U)p.r(U)p.r(U)p.m(A)p.r(A)p.r(G)p.r(G)p.r(C)p.r(U)p.r(C)p.r(C)p.r(A)p.r(G)p.r(G)p.r(G)p.r(A)p.r(C)p.r(U)p.r(T)p.r(T)}$$$RNA1{StrandType:ss}|RNA2{StrandType:as}$	62%
RNA1{r(A)p.r(G)p.r(U)p.r(U)p.r(U)p.r(C)p.[fl2r](U)p.[fl2r](A)p.r(G)p.r(G)p.r(G)p.r(C)p.r(C)p.r(G)p.r(U)p.r(G)p.r(G)p.r(C)p.r(C)p.r(T)p.r(T)}|RNA2{r(G)p.r(G)p.r(C)p.r(C)p.r(A)p.r(C)p.r(G)p.r(G)p.r(C)p.r(C)p.r(C)p.[fl2r](U)p.r(A)p.r(G)p.r(A)p.r(A)p.r(A)p.r(C)p.r(U)p.r(T)p.r(T)}$$$RNA1{StrandType:ss}|RNA2{StrandType:as}$	82%
RNA1{r(A)p.r(G)p.r(U)p.r(U)p.r(U)p.r(C)p.[fl2r](U)p.r(A)p.r(G)p.r(G)p.r(G)p.r(C)p.r(C)p.r(G)p.[fl2r](U)p.r(G)p.r(G)p.r(C)p.r(C)p.r(T)p.r(T)}|RNA2{r(G)p.r(G)p.r(C)p.[fl2r](C)p.r(A)p.r(C)p.r(G)p.[fl2r](G)p.r(C)p.r(C)p.r(C)p.[fl2r](U)p.r(A)p.r(G)p.r(A)p.r(A)p.r(A)p.r(C)p.r(U)p.r(T)p.r(T)}$$$RNA1{StrandType:ss}|RNA2{StrandType:as}$	85%
RNA1{r(A)p.r(U)p.m(A)p.r(C)p.r(U)p.r(U)p.r(G)p.r(G)p.r(C)p.r(G)p.r(G)p.r(G)p.r(C)p.r(U)p.r(C)p.r(U)p.r(U)p.r(U)p.r(C)p.r(T)p.r(T)}|RNA2{r(G)p.r(A)p.r(A)p.r(A)p.r(G)p.r(A)p.r(G)p.r(C)p.r(C)p.r(C)p.r(G)p.r(C)p.m(C)p.r(A)p.r(A)p.r(G)p.r(U)p.r(A)p.r(U)p.r(T)p.r(T)}$$$RNA1{StrandType:ss}|RNA2{StrandType:as}$	72%
RNA1{r(A)p.r(U)p.m(C)p.r(A)p.m(C)p.r(A)p.r(A)p.r(A)p.r(C)p.r(C)p.r(C)p.r(C)p.m(U)p.r(A)p.r(G)p.r(A)p.r(G)p.r(G)p.r(G)p.r(T)p.r(T)}|RNA2{r(C)p.r(C)p.r(C)p.r(U)p.r(C)p.m(U)p.r(A)p.m(G)p.r(G)p.r(G)p.r(G)p.r(U)p.r(U)p.r(U)p.r(G)p.m(U)p.r(G)p.r(A)p.r(U)p.r(T)p.r(T)}$$$RNA1{StrandType:ss}|RNA2{StrandType:as}$	27%
RNA1{r(A)p.r(U)p.m(C)p.r(A)p.m(C)p.r(A)p.r(A)p.r(A)p.r(C)p.r(C)p.r(C)p.r(C)p.m(U)p.r(A)p.r(G)p.r(A)p.r(G)p.r(G)p.r(G)p.r(T)p.r(T)}|RNA2{r(C)p.r(C)p.r(C)p.r(U)p.r(C)p.m(U)p.r(A)p.r(G)p.r(G)p.r(G)p.r(G)p.r(U)p.r(U)p.m(U)p.r(G)p.m(U)p.r(G)p.r(A)p.r(U)p.r(T)p.r(T)}$$$RNA1{StrandType:ss}|RNA2{StrandType:as}$	75%
RNA1{r(A)p.r(U)p.m(C)p.r(A)p.m(C)p.r(A)p.r(A)p.r(A)p.r(C)p.r(C)p.r(C)p.r(C)p.r(U)p.r(A)p.r(G)p.r(A)p.r(G)p.r(G)p.r(G)p.r(T)p.r(T)}|RNA2{r(C)p.r(C)p.r(C)p.r(U)p.r(C)p.m(U)p.r(A)p.r(G)p.r(G)p.r(G)p.r(G)p.r(U)p.r(U)p.r(U)p.r(G)p.m(U)p.r(G)p.r(A)p.r(U)p.r(T)p.r(T)}$$$RNA1{StrandType:ss}|RNA2{StrandType:as}$	75%
RNA1{r(A)p.r(U)p.m(C)p.r(A)p.r(G)p.r(A)p.r(G)p.r(G)p.r(G)p.r(A)p.r(G)p.r(G)p.r(U)p.r(C)p.r(U)p.m(U)p.r(A)p.r(G)p.r(A)p.r(T)p.r(T)}|RNA2{r(U)p.r(C)p.m(U)p.r(A)p.r(A)p.r(G)p.r(A)p.r(C)p.r(C)p.r(U)p.r(C)p.r(C)p.r(C)p.r(U)p.r(C)p.m(U)p.r(G)p.r(A)p.r(U)p.r(T)p.r(T)}$$$RNA1{StrandType:ss}|RNA2{StrandType:as}$	68%
RNA1{r(A)p.r(U)p.r(C)p.m(G)p.r(A)p.r(C)p.r(C)p.m(U)p.r(G)p.r(A)p.r(A)p.r(G)p.r(G)p.r(A)p.r(G)p.m(U)p.r(A)p.r(C)p.r(G)p.r(T)p.r(T)}|RNA2{r(C)p.r(G)p.m(U)p.r(A)p.r(C)p.r(U)p.r(C)p.r(C)p.r(U)p.r(U)p.m(C)p.r(A)p.r(G)p.r(G)p.r(U)p.r(C)p.r(G)p.r(A)p.r(U)p.r(T)p.r(T)}$$$RNA1{StrandType:ss}|RNA2{StrandType:as}$	29%
RNA1{r(A)p.r(U)p.r(C)p.m(U)p.r(A)p.r(C)p.r(C)p.m(C)p.r(A)p.r(G)p.r(C)p.r(U)p.r(C)p.m(U)p.r(C)p.r(C)p.r(C)p.r(U)p.r(U)p.r(T)p.r(T)}|RNA2{r(A)p.r(A)p.r(G)p.r(G)p.r(G)p.r(A)p.r(G)p.r(A)p.r(G)p.r(C)p.m(U)p.r(G)p.r(G)p.r(G)p.m(U)p.r(A)p.r(G)p.r(A)p.r(U)p.r(T)p.r(T)}$$$RNA1{StrandType:ss}|RNA2{StrandType:as}$	75%
RNA1{r(A)p.r(U)p.r(C)p.m(U)p.r(A)p.r(C)p.r(C)p.r(C)p.r(A)p.r(G)p.r(C)p.r(U)p.r(C)p.r(U)p.r(C)p.r(C)p.r(C)p.r(U)p.r(U)p.r(T)p.r(T)}|RNA2{r(A)p.r(A)p.r(G)p.r(G)p.r(G)p.r(A)p.r(G)p.r(A)p.r(G)p.r(C)p.r(U)p.r(G)p.r(G)p.r(G)p.m(U)p.r(A)p.r(G)p.r(A)p.r(U)p.r(T)p.r(T)}$$$RNA1{StrandType:ss}|RNA2{StrandType:as}$	77%
RNA1{r(A)p.r(U)p.r(C)p.r(A)p.r(C)p.r(A)p.r(A)p.r(A)p.r(C)p.r(C)p.r(C)p.r(C)p.m(U)p.r(A)p.r(G)p.r(A)p.r(G)p.r(G)p.r(G)p.r(T)p.r(T)}|RNA2{r(C)p.r(C)p.r(C)p.r(U)p.r(C)p.m(U)p.r(A)p.r(G)p.r(G)p.r(G)p.r(G)p.r(U)p.r(U)p.r(U)p.r(G)p.r(U)p.r(G)p.r(A)p.r(U)p.r(T)p.r(T)}$$$RNA1{StrandType:ss}|RNA2{StrandType:as}$	29%
RNA1{r(A)p.r(U)p.r(C)p.r(A)p.r(G)p.r(A)p.r(G)p.r(G)p.r(G)p.r(A)p.r(G)p.r(G)p.r(U)p.r(C)p.r(U)p.m(U)p.r(A)p.r(G)p.r(A)p.r(T)p.r(T)}|RNA2{r(U)p.r(C)p.m(U)p.r(A)p.r(A)p.r(G)p.r(A)p.r(C)p.r(C)p.r(U)p.r(C)p.r(C)p.r(C)p.r(U)p.r(C)p.r(U)p.r(G)p.r(A)p.r(U)p.r(T)p.r(T)}$$$RNA1{StrandType:ss}|RNA2{StrandType:as}$	69%
RNA1{r(A)p.r(U)p.r(C)p.r(C)p.m(U)p.r(G)p.m(C)p.r(A)p.r(G)p.r(A)p.r(A)p.m(G)p.r(A)p.r(A)p.r(G)p.r(C)p.r(C)p.r(U)p.r(C)p.r(T)p.r(T)}|RNA2{r(G)p.r(A)p.r(G)p.r(G)p.r(C)p.r(U)p.r(U)p.r(C)p.r(U)p.r(U)p.r(C)p.m(U)p.r(G)p.m(C)p.r(A)p.r(G)p.r(G)p.r(A)p.r(U)p.r(T)p.r(T)}$$$RNA1{StrandType:ss}|RNA2{StrandType:as}$	50%
RNA1{r(A)p.r(U)p.r(C)p.r(C)p.m(U)p.r(G)p.m(C)p.r(A)p.r(G)p.r(A)p.r(A)p.r(G)p.r(A)p.r(A)p.r(G)p.r(C)p.r(C)p.r(U)p.r(C)p.r(T)p.r(T)}|RNA2{r(G)p.r(A)p.r(G)p.r(G)p.r(C)p.r(U)p.r(U)p.r(C)p.r(U)p.r(U)p.r(C)p.r(U)p.r(G)p.r(C)p.r(A)p.r(G)p.r(G)p.r(A)p.r(U)p.r(T)p.r(T)}$$$RNA1{StrandType:ss}|RNA2{StrandType:as}$	74%
RNA1{r(A)p.r(U)p.r(C)p.r(G)p.r(A)p.r(C)p.r(C)p.[fl2r](U)p.r(G)p.r(A)p.r(A)p.r(G)p.r(G)p.r(A)p.r(G)p.[fl2r](U)p.r(A)p.r(C)p.r(G)p.r(T)p.r(T)}|RNA2{r(C)p.r(G)p.[fl2r](U)p.r(A)p.r(C)p.r(U)p.r(C)p.r(C)p.r(U)p.r(U)p.[fl2r](C)p.r(A)p.r(G)p.r(G)p.r(U)p.r(C)p.r(G)p.r(A)p.r(U)p.r(T)p.r(T)}$$$RNA1{StrandType:ss}|RNA2{StrandType:as}$	46%
RNA1{r(A)p.r(U)p.r(C)p.r(G)p.r(A)p.r(C)p.r(C)p.m(U)p.r(G)p.r(A)p.r(A)p.r(G)p.r(G)p.r(A)p.r(G)p.m(U)p.r(A)p.r(C)p.r(G)p.r(T)p.r(T)}|RNA2{r(C)p.r(G)p.m(U)p.r(A)p.r(C)p.r(U)p.r(C)p.r(C)p.r(U)p.r(U)p.r(C)p.r(A)p.r(G)p.r(G)p.r(U)p.r(C)p.r(G)p.r(A)p.r(U)p.r(T)p.r(T)}$$$RNA1{StrandType:ss}|RNA2{StrandType:as}$	30%
